Assay results reported in patent US9796711B2, “Substituted pyrazolo[3,4-b]pyridin-6-carboxylic acids and method of use” (AbbVie S.àr.l., priority 2015, dated 2017).
pEC50: −log10 of the molar value.

Tests used:
ΔF508-CFTR [1] = molecular target: T1, ΔF508-CFTR (Homo sapiens, UniProt P13569, DEL508-508); test: CFTR cell surface levels using HRP-tagged ΔF508-CFTR expressing CFBE cells, in the presence of a co-corrector; assay type: cell-based; details: HRP-tagged ΔF508-CFTR expressing CFBE cells, in the presence of 3 μM co-corrector; for pEC50: read-out: EC50
T1 construct: host or cells: CFBE41o-, doxycycline-inducible
T1 sequence (P13569 with tags, fused parts or gaps DEL508-508): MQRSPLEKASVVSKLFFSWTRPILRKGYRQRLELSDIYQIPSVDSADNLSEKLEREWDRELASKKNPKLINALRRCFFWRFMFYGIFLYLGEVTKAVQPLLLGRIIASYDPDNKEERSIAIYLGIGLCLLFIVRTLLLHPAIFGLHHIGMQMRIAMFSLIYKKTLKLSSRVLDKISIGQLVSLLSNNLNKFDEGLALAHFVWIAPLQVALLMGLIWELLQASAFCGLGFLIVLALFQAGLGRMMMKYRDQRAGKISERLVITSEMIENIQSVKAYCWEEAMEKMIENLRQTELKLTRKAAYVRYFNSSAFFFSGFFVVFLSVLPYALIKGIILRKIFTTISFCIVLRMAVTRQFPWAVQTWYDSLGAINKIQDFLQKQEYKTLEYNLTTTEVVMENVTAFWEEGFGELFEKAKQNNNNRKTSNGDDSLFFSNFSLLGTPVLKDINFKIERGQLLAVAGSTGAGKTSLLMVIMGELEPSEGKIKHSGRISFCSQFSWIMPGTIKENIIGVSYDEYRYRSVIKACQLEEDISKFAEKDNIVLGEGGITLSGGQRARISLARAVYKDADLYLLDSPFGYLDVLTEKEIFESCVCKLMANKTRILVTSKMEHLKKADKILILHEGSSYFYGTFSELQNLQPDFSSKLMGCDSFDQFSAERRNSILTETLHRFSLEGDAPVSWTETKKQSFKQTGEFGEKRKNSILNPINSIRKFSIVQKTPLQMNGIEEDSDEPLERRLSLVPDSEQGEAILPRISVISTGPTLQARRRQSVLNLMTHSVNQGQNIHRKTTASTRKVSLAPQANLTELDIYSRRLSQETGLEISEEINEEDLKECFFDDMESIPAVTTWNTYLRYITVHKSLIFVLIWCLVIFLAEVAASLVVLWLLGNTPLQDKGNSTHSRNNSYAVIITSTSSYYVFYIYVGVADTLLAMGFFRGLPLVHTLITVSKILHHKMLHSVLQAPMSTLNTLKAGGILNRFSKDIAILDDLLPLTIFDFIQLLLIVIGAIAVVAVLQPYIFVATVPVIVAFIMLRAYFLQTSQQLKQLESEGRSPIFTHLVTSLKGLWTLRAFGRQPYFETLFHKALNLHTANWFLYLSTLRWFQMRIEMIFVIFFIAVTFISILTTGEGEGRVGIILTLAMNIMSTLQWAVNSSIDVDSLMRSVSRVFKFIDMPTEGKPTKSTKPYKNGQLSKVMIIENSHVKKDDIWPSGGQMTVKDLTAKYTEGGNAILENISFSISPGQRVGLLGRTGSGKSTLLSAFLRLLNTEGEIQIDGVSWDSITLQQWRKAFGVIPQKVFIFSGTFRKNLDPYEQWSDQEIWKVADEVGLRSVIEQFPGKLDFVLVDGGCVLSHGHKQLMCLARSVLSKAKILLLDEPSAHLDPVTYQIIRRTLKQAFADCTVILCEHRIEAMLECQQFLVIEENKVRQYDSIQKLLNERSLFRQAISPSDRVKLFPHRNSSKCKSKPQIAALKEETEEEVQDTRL
Outline: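 Cells were seeded with 0.5 μg/mL doxycycline and held 68 h at 37 °C. Test compounds plus 3 μM co-corrector (final 0.1% DMSO) were then added for 20 h at 33 °C. Washed cells received HRP substrate, and luminescence was normalized between DMSO and 3 μM co-corrector controls.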

ΔF508-CFTR [2] = molecular target: T1, ΔF508-CFTR; test: CFTR cell surface levels using HRP-tagged ΔF508-CFTR expressing CFBE cells, intrinsic corrector capacity; assay type: cell-based; details: HRP-tagged ΔF508-CFTR expressing CFBE cells, intrinsic corrector capacity (no co-corrector), 33° C., 20 hours; for pEC50: read-out: EC50
Outline: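 Here the cells express ΔF508-CFTR with horseradish peroxidase inserted in extracellular loop 4, so only rescued channel at the surface gives luminescent signal. Compounds act on their own, 20 h at the reduced temperature of 33 °C; values are percent activity relative to DMSO and a 3 μM corrector.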

Row | SMILES | % Activation (ΔF508-CFTR [1]) | pEC50 (ΔF508-CFTR [1]) | % Activation (ΔF508-CFTR [2]) | pEC50 (ΔF508-CFTR [2])
1 | O=C(O)c1cc(N2CCC(O)(CCO)CC2)c2c(C3CCC3)nn(-c3ccccc3)c2n1 [compound 546, 3-cyclobutyl-4-[4-hydroxy-4-(2-hydroxyethyl)piperidin-1-yl]-1-phenyl-1H-pyrazolo[3,4-b]pyridine-6-carboxylic acid] | 246.6% | 5.48 | 87.52% | 5.48
2 | COCC1CCN(c2cc(C(=O)O)nc3c2c(C(C)C)nn3CC2CCC2)CC1 [compound 547, 1-(cyclobutylmethyl)-4-[4-(methoxymethyl)piperidin-1-yl]-3-(propan-2-yl)-1H-pyrazolo[3,4-b]pyridine-6-carboxylic acid] | 318.7% | 5.73 | 120.7% | 5.48
3 | COCC1CCN(c2cc(C(=O)O)nc3c2c(C(C)C)nn3CC(C)C)CC1 [compound 548, 4-[4-(methoxymethyl)piperidin-1-yl]-1-(2-methylpropyl)-3-(propan-2-yl)-1H-pyrazolo[3,4-b]pyridine-6-carboxylic acid] | 306% | 5.48 | 88.93% | 5.60
4 | N#CC1CCN(c2ccc(-c3cc(C(=O)O)nc4c3c(OC3CCNC3)nn4-c3ccccc3)cn2)CC1 (stereo not drawn) [compound 550, 4-[6-(4-cyanopiperidin-1-yl)pyridin-3-yl]-1-phenyl-3-[(pyrrolidin-3-yl)oxy]-1H-pyrazolo[3,4-b]pyridine-6-carboxylic acid] | 122.4% | < 5.00 | 4.775% | < 5.00
5 | C[C@H]1C[C@H](c2nn(-c3ccccc3)c3nc(C(=O)O)cc(-c4ccc(N5CCC(C#N)CC5)nc4)c32)C1 [compound 551, 4-[6-(4-cyanopiperidin-1-yl)pyridin-3-yl]-3-(trans-3-methylcyclobutyl)-1-phenyl-1H-pyrazolo[3,4-b]pyridine-6-carboxylic acid] | 424.35% | 7.06 | 223.1% | 6.43
6 | CC(C)(C)OC(=O)N1CCC(Oc2nn(-c3ccccc3)c3nc(C(=O)O)cc(-c4ccc(N5CCC(C#N)CC5)nc4)c23)C1 (stereo not drawn) [compound 552, 3-{[1-(tert-butoxycarbonyl)pyrrolidin-3-yl]oxy}-4-[6-(4-cyanopiperidin-1-yl)pyridin-3-yl]-1-phenyl-1H-pyrazolo[3,4-b]pyridine-6-carboxylic acid] | 396.65% | 6.40 | 156.1% | 6.43
7 | CC(C)(C)OC(=O)N1CCC(Oc2nn(-c3ccccc3)c3nc(C(=O)O)cc(-c4ccc(N5CCC(C#N)CC5)nc4)c23)CC1 [compound 553, 3-{[1-(tert-butoxycarbonyl)piperidin-4-yl]oxy}-4-[6-(4-cyanopiperidin-1-yl)pyridin-3-yl]-1-phenyl-1H-pyrazolo[3,4-b]pyridine-6-carboxylic acid] | 419.05% | 6.93 | 189.7% | 6.43
8 | CCCOCCN1CCN(c2cc(C(=O)O)nc3c2c(C2CCC2)nn3-c2ccccc2)CC1 [compound 555, 3-cyclobutyl-1-phenyl-4-[4-(2-propoxyethyl)piperazin-1-yl]-1H-pyrazolo[3,4-b]pyridine-6-carboxylic acid] | 310.65% | 6.77 | 152% | 6.48
9 | O=C(O)c1cc(N2CCOC(CN3CCCCC3)C2)c2c(C3CCC3)nn(-c3ccccc3)c2n1 (stereo not drawn) [compound 556, 3-cyclobutyl-1-phenyl-4-{2-[(piperidin-1-yl)methyl]morpholin-4-yl}-1H-pyrazolo[3,4-b]pyridine-6-carboxylic acid] | 324% | 6.17 | 140.1% | 6.08
